Measurements: patent US20250367170A1, “TOPICAL ANGIOTENSIN II RECEPTOR BLOCKERS (ARBS) FOR TREATING EYE CONDITIONS” (The Cleveland Clinic Foundation, priority 2022, published 2025)

Assays:
Format in all cases: in vivo, New Zealand White rabbits
[1] = test system: rabbit corneas after 1N NaOH alkali burn injury; assay: Slit lamp stromal opacity area and intensity (ImageJ) one month after alkali burn; conditions: topical 0.2 mg/ml losartan and/or 1% prednisolone acetate six times per day
Procedure: All animal treatments and care were approved by the Institutional Animal Care and Use Committee (IACUC) at the Cleveland Clinic Foundation (Cleveland, OH, USA) and the Animal Care and Use Review Office of the Department of the Army (Fort Detrick, MD). All rabbits were treated in accordance with the tenets of the ARVO Statement for the Use of Animals in Ophthalmic and Vision Research. Sixteen 10- to 15-week-old female New Zealand White rabbits weighing 2.5 to 3.0 kg each were included in this example.
(§1) Alkali injuries were produced in one eye of rabbits with previously published methods^10 using 1N sodium hydroxide (Sigma, St. Louis, MO) in balanced salt solution (BSS, 0.64% sodium chloride, 0.075% potassium chloride, 0.048% calcium chloride dihydrate, 0.03% magnesium chloride hexahydrate, 0.39% sodium acetate trihydrate, 0.17% sodium citrate dihydrate, pH 7.5, Alcon, Ft. Worth, TX) and a 5 mm diameter circular Whatman No. 1 filter paper (Cat #1001-6508, Fisher Scientific) wetted with 100 μl of 1N NaOH solution. Following the alkali burn injury, the cornea was irrigated profusely with BSS. Each injured cornea also received one drop of ciprofloxacin (Alcon, Ft. Worth, TX, USA) ten minutes after surgery and four times a day for one week and at least 15 minutes apart from the study medications.
(§2) Worth TX), at least 5 minutes apart, or 4) 50 μl of BSS.
At one month after sodium hydroxide exposure and treatments, with the rabbits under ketamine-xylazine general anesthesia, the eyes were dilated with two drops of 1% tropicamide (Akom Co., Lake Forest, IL) for thirty minutes. The study eye in each rabbit had slit lamp photographs with standardized illumination level and angle of illumination at 20× magnification with a Topcon (Oakland, NJ, USA) SL-D7 slit lamp photography system. For each study eye, the total area of opacity was determined by outlining the opacity with the freehand selection tool using ImageJ 1.53a analysis software calibrated to mm^2. The “raw internal density” in pixels for the opacified area in each cornea was also determined using ImageJ.

collagen type IV = assay: IHC collagen type IV intensity in anterior and posterior stroma after alkali burn; conditions: one month
Procedure: Multiplex immunohistochemistry (IHC) was performed using previously described methods^8 and primary antibodies (Table 7) confirmed by western blotting and IHC to recognize rabbit antigens or isotypic control antibodies (Thermo Fisher Scientific, Waltham, MA), and secondary fluorescent tagged antibodies (Table 7). The collagen type IV antibody (Cat. #AB769, Millipore, Temecula CA) was raised against purified human and bovine collagen type IV that had been affinity purified with human and bovine collagen type IV crosslinked to agarose and cross-absorbed by the manufacturer with human and bovine collagens type I, II, III, V and VI to eliminate cross-reactivity. This collagen type IV antibody was shown previously to bind rabbit collagen IV in IHC,^8,9 and recognizes the alpha-1/alpha-2 chains but not the alpha-3 to alpha-6 chains. The keratocan antibody is raised against peptide […]-OH (SEQ ID NO:1). This marker was used to identify keratocytes in situ. […] All corneas in each group had IHC for collagen type IV. Images from each cornea were converted to uniform 300 DPI, 875×568 pixel, files. […] The staining intensity within each box was determined with the analyze histogram function and the mean of three boxes was the intensity value in the anterior or posterior stroma for that cornea.

[2] = test system: central corneal neovascularization (CNV); assay: Corneal angiography for central corneal neovascularization after alkali burn; conditions: topical six times per day, one month, all four vehicle corneas positive
Procedure: as §1, §2
All corneas had fluorescent angiography at the peak of dye passage in the cornea immediately after injection of 1.5 ml of 10% sodium fluorescein (McKesson, Irvine, TX) in the central ear vein with the slit lamp system and digital camera system using a “barrier filter” that only transmitted 520-530 nm, the peak of fluorescein emission, with broad illumination of the cornea, as previously described.^11

Question: For `CC(=O)OCC(=O)[C@@]1(O)CC[C@H]2[C@@H]3CCC4=CC(=O)C=C[C@]4(C)[C@H]3[C@@H](O)C[C@@]21C` [prednisolone acetate], which “total corneal opacity area measured with ImageJ, vs BSS vehicle” value [1] is on record?
Answer: Its value is “decreased”.

Question: What about the “total opacity in pixels in the opacified area of cornea, vs vehicle BSS group” value [1] of the same compound?
Answer: The value was “trended towards decreased total opacity”.

Question: And the “mean intensity units of collagen type IV in the anterior stroma vs vehicle” value (collagen type IV)?
Answer: Its value is “trend towards a decrease”.

Question: And the “corneas (of four) that developed central corneal neovascularization” value [2]?
Answer: The value was “one”.
